Measurements reported in ChEMBL document CHEMBL5465560, “Selectivity Literature for EUbOPEN Chemogenomic Library” (2024).
pIC50: −log10 of the molar value. Each block holds one compound with its values, some of them ahead of it.

Experiments:
[1] = target: RAC-beta serine/threonine-protein kinase (Homo sapiens) (UniProt P31751); experiment: Selectivity interaction (Rxn Biology Kinase assay) EUB0001632a AKT2; details: at 10 µM
[2] = target: T1, Histone-lysine N-methyltransferase SETD7 (Homo sapiens) (UniProt Q8WTS6); experiment: Selectivity interaction (Methyltransferase screen (radiometric assays, panel of 8 PRMTs, 21 protein lysine methyltransferases, 3 DNA methyltransferases, and one RNA methyltransferase)) EUB0000272b SETD7
T1 sequence (whole entry): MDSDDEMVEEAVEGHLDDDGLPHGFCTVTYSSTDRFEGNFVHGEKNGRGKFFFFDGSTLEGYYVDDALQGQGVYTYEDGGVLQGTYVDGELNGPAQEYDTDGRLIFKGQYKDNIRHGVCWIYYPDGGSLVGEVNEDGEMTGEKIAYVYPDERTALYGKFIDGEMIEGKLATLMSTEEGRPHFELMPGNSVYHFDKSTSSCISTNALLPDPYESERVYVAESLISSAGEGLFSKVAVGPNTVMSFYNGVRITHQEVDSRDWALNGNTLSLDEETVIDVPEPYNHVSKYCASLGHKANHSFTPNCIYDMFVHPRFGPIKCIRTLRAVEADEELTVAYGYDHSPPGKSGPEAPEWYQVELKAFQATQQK

[3] = target: Tyrosine-protein kinase receptor UFO (Homo sapiens, UniProt P30530); experiment: Selectivity interaction (Kinase panel (33PanQinase(R) Activity Assay)) EUB0000877a AXL
[4] = target: Calcium/calmodulin-dependent protein kinase type 1 (Homo sapiens) (UniProt Q14012); experiment: Selectivity interaction (Kinase panel (Invitrogen)) EUB0000639a CAMK1; details: at 200 nM
[5] = target: Cyclin-dependent kinase 9 (Homo sapiens, UniProt P50750); experiment: Selectivity interaction (KinomeScan (DiscoverX)) EUB0001049a CDK9; details: at 1 µM
[6] = target: T2, Serine/threonine-protein kinase ULK3 (Homo sapiens) (UniProt Q6PHR2); experiment: Selectivity interaction (Ambit KINOMEscan and KiNATiv profiling in Jurkat cells) EUB0000090b ULK3; assay type: cell-based; details: at 1 µM
T2 sequence (whole entry): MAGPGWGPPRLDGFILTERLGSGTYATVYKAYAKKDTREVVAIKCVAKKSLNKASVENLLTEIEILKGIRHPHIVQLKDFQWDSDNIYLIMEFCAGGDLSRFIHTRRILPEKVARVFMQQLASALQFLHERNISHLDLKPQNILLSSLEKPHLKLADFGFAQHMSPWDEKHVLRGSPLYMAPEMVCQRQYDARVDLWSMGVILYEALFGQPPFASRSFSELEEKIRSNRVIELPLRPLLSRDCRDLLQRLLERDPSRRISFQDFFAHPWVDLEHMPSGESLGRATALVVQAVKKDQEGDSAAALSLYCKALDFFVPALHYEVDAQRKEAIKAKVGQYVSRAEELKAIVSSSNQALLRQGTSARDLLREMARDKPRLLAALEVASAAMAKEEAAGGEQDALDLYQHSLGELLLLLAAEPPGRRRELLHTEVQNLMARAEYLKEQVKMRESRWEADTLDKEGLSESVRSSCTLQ

[7] = target: LIM domain kinase 2 (Homo sapiens) (UniProt P53671); experiment: Selectivity interaction (KinomeScan (DiscoverX)) EUB0000655a LIMK2; details: at 10 µM
[8] = target: T3, Mitogen-activated protein kinase kinase kinase kinase 3 (Homo sapiens) (UniProt Q8IVH8); experiment: Selectivity interaction (KinomeScan (DiscoverX)) EUB0000655a MAP4K3; details: at 10 µM
T3 sequence (whole entry): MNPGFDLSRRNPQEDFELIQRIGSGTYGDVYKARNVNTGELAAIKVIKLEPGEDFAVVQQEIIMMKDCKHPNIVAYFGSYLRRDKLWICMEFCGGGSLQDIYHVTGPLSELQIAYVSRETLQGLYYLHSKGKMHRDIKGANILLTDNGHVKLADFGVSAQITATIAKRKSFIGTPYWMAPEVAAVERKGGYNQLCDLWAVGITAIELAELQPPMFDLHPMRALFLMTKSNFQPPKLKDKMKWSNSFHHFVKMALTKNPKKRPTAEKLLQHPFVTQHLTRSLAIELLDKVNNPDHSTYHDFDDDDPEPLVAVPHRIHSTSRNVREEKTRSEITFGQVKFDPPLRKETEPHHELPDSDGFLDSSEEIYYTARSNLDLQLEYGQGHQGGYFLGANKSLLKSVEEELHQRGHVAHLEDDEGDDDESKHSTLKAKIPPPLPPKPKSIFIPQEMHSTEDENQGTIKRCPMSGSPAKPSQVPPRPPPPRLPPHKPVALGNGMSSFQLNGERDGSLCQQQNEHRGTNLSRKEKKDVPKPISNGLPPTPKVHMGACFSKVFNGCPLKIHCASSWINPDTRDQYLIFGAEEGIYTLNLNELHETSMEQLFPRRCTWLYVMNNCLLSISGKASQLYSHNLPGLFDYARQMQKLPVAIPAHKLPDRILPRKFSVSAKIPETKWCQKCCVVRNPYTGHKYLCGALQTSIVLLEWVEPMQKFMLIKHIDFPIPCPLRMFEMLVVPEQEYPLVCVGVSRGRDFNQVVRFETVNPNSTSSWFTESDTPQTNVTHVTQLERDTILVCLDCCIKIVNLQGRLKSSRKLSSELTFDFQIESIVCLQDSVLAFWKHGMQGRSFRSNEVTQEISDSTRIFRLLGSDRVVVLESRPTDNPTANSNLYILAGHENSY

[9] = target: T4, Inhibitor of nuclear factor kappa-B kinase subunit epsilon (Homo sapiens) (UniProt Q14164); experiment: Selectivity interaction (KinomeScan (DiscoverX)) EUB0000045b IKBKE
T4 sequence (whole entry): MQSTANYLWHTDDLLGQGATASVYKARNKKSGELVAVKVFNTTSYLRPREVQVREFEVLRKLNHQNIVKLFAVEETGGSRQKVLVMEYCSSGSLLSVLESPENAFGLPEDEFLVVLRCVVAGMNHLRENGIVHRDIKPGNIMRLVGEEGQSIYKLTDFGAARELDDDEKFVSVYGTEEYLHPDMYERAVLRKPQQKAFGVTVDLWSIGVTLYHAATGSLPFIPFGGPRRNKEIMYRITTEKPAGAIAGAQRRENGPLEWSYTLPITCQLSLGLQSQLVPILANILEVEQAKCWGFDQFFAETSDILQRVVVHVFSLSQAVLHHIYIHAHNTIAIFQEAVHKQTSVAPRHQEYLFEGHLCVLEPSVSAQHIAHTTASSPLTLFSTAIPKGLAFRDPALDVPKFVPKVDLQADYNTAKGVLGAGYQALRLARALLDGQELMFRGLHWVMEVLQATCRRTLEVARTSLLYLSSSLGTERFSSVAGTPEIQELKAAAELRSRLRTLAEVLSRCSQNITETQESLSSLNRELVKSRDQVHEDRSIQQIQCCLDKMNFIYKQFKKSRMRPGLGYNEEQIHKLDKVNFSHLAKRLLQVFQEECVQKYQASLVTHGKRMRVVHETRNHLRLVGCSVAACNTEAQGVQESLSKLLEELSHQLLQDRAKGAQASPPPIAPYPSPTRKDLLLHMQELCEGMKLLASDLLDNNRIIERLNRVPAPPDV

Tyrosine-protein kinase receptor UFO, sequence (P30530 whole entry): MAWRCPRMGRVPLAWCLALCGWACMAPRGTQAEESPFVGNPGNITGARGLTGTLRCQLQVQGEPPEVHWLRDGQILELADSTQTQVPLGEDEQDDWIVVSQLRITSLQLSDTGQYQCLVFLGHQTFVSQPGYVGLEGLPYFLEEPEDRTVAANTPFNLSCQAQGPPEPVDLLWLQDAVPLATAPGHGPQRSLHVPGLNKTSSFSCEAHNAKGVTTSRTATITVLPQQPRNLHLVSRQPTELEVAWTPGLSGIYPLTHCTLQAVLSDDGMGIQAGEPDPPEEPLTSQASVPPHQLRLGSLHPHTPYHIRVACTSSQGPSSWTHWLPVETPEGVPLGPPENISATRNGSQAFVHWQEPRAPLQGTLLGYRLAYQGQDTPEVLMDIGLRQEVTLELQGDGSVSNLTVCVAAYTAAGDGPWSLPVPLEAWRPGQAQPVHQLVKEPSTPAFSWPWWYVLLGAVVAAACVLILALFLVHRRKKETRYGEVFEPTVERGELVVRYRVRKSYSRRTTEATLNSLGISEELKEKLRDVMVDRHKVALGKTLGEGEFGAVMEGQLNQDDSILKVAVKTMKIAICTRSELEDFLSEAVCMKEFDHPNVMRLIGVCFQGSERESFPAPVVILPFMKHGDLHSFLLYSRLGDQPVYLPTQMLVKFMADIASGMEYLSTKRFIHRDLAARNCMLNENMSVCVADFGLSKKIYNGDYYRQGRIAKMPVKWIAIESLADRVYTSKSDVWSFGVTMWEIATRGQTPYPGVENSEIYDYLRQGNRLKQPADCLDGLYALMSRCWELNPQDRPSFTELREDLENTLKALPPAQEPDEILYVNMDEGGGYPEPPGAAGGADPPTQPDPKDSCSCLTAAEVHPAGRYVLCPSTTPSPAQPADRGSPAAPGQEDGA
Calcium/calmodulin-dependent protein kinase type 1 (Homo sapiens), sequence (Q14012 whole entry, looked up): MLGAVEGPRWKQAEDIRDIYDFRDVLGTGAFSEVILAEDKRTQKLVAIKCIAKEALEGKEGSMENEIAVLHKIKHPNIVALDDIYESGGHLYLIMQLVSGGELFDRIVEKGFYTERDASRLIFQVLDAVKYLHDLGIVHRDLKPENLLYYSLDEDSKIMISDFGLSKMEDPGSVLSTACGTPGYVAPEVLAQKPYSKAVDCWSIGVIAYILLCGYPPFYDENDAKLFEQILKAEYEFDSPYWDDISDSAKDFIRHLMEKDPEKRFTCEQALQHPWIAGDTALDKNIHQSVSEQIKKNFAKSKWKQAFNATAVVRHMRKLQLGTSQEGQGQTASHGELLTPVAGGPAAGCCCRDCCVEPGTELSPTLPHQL
LIM domain kinase 2 (Homo sapiens), sequence (P53671 whole entry, looked up, the tested form may be a part): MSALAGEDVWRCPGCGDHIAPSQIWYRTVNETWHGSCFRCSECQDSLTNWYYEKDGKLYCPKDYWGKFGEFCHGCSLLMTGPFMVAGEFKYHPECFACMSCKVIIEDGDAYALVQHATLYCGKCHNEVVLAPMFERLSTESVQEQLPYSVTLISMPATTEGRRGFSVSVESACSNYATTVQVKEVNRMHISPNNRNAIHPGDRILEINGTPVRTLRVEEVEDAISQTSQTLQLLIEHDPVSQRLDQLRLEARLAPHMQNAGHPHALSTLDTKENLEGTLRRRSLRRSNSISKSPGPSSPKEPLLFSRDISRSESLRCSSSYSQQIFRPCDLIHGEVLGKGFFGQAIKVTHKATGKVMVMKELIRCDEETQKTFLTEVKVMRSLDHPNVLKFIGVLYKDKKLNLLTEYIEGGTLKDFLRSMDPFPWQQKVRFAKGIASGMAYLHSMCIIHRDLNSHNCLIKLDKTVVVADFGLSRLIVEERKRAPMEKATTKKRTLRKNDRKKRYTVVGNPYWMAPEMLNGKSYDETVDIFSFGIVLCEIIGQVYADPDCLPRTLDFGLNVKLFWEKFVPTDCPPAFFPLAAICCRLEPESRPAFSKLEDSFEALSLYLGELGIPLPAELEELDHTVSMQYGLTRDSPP
RAC-beta serine/threonine-protein kinase (Homo sapiens), sequence (P31751 whole entry): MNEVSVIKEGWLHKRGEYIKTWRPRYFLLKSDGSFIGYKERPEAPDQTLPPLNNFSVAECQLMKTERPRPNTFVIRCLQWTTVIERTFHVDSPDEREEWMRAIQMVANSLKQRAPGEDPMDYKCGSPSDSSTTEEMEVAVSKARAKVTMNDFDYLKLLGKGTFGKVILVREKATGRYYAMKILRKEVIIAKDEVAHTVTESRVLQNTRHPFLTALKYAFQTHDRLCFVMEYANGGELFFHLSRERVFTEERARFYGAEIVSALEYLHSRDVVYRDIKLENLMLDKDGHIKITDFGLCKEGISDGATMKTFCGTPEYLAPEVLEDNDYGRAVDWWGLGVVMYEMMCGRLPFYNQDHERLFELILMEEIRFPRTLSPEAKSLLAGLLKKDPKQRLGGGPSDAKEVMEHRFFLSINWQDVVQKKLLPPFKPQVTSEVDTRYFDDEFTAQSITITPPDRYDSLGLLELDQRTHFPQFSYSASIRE
Cyclin-dependent kinase 9, sequence (P50750 whole entry): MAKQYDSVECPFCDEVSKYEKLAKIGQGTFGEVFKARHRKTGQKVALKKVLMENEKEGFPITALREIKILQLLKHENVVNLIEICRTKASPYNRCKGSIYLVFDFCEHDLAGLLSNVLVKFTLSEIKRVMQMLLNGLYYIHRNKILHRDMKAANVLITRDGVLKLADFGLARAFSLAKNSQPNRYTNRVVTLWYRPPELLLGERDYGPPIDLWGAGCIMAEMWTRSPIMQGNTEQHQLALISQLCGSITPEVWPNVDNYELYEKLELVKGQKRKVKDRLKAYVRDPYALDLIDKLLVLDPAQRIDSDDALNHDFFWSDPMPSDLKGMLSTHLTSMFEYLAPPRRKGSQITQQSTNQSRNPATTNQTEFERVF

% of inhibition [1]: 1.65%
Compound: Cn1cc(-n2cnc3c(NCc4nc5cc(Cl)c(Cl)cc5[nH]4)nc(N4CCOCC4)nc32)cn1

% of activity ([2]; at 1 µM): 101%
% of activity ([2]; at 10 µM): 99%
Compound: Cc1cc(C)cc([C@H]2c3cc(C)ccc3NC(=O)CN2C(=O)c2ccc(Br)s2)c1

pIC50 [3]: < 5.00
Compound: CCC(=O)N1CC[C@H](Nc2ncnc3c2CN(c2cnc(OC)c(C(F)(F)F)c2)CC3)C1 [LENIOLISIB]

% of inhibition [4]: -15.3%
Compound: CC[C@@H]1[C@H](F)C(=O)N[C@@H]1COc1nccc2cc(C(N)=O)c(OC)cc12 [ZIMLOVISERTIB]

Compound: COc1cc(Nc2nc(C)cc(-c3cnn4nc(OC)ccc34)n2)cc(C(F)(F)F)c1
% of control [5]: 100%

Compound: CN(C)C/C=C/C(=O)Nc1ccc(C(=O)N2CCCC(Nc3ncc(Cl)c(-c4c[nH]c5ccccc45)n3)C2)cc1 (stereo unspecified)
% of control [6]: 87%

Compound: CN(C)CCOc1ccc(-c2nc(-c3ccncc3)c(-c3ccc4c(c3)CC/C4=N\O)[nH]2)cc1
% of control [7]: 79%
% of control [8]: 98%

Compound: C=CC(=O)Nc1cc(-n2c(=O)ccc3cnc4ccc(-c5ccc(NS(C)(=O)=O)cc5)cc4c32)ccc1C
% of control ([9]; at 1 µM): 100%
% of control ([9]; at 10 µM): 100%
